US4847247A, “Penicillin derivatives as anti-inflammatory and antidegenerative agents” (Merck & Co., Inc., priority 1986, dated 1989)

Biological target: T1, Human Polymorphonuclear Leukocyte Elastase (Homo sapiens, UniProt P08246)
T1 construct: Crude extract of human polymorphonuclear leukocytes (PMN) containing elastase activity; endogenous in cells; host or cells: human polymorphonuclear leukocytes (crude extract)
T1 sequence (P08246 30-247 limits assumed): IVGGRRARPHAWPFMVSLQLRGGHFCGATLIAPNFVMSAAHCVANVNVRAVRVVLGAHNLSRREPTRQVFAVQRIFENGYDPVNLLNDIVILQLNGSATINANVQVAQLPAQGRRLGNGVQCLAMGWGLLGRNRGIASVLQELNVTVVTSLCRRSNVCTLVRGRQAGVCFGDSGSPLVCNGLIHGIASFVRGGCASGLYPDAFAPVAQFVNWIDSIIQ
Experiment: Inhibition of human polymorphonuclear leukocyte (granulocyte) elastase via hydrolysis of Boc-AAPAN
Format: biochemical
Conditions: not given
Method: Enzyme assay for the Inhibition of Human Polymorphonuclear Leukocyte Elastase Via Hydrolysis of N-t-Boc-alanyl-alanyl-prolylalanine-p-nitroanilide
0.05M TES (N-tris[hydroxymethyl]methyl-2-amino-ethanesulfonic acid) buffer, pH 7.5.
0.2 mM N-t-Boc-alanyl-alanyl-prolyl-alanine-p-nitroanilide (Boc-AAPAN).
To prepare substrate, the solid (m.w. 550) was first dissolved in 10.0 ml DMSO. Buffer at pH 7.5 was then added to a final volume of 100 ml.
Crude extract of human polymorphonuclear leukocytes (PMN) containing elastase activity.
Inhibitors (cephalosporin sulfoxide esters) to be tested dissolved in DMSO just before use.
To 1.0 ml of 0.2 mM Boc-AAPAN in a cuvette, 0.01-0.1 ml of DMSO with or without inhibitor was added. After mixing, a measurement was taken at 410 mμ to detect any spontaneous hydrolysis due to of test compound. 0.05 Milliliters of PMN extract was then added and the αOD/minute at 410 mμ was measured and recorded. Beckman model 35 spectrophotometer was used.
The elastase activity in the crude PMN extract may vary from one preparation to another. A control of each new batch is run, and the volume added in the assay procedure is adjusted according to activity.

Compound | IC50
CCO[C@H]1C(=O)N2[C@@H](C(=O)OCc3ccc(C(=O)O)cc3)C(C)(C)S(=O)(=O)[C@H]12 [6α-OC2 H5 / 2 / OBZ(p-COOH)] | 1.46 µM
CC(=O)O[C@H]1C(=O)N2[C@@H](C(=O)OCc3ccccc3)C(C)(C)S(=O)(=O)[C@H]12 [CH3 COO / 2 / OBZ, Benzyl 6α-acetoxypenicillanate-1,1-dioxide] | 0.524 µM
Cc1ccc(S(=O)(=O)OC2C(=O)N3[C@@H](C(=O)OCc4ccccc4)C(C)(C)S(=O)(=O)[C@H]23)cc1 (stereo partly shown) [p-CH3 C6 H4 SO2 O(TsO) / 2 / OBZ] | 0.101 µM
CN(C(=O)C(F)(F)F)[C@H]1C(=O)N2[C@@H](C(=O)OCc3ccccc3)C(C)(C)S(=O)(=O)[C@H]12 [6α-CF3 CON(CH3) / 2 / OBZ, Benzyl 6α-(N-methyltrifluoroacetamido)penicillanate-1,1-dioxide] | 0.446 µM
CC1(C)[C@H](C(=O)OCc2ccccc2)N2C(=O)[C@H](COC(=O)NCc3ccccc3)[C@H]2S1(=O)=O [6α-CH2 O(CO)NH(BZ) / 2 / OBZ] | 8.22 µM
CC1(C)[C@H](C(=O)OCc2ccccc2)N2C(=O)[C@@H](NC(=O)C(F)(F)F)[C@H]2S1(=O)=O [6β-CF3 CONH / 2 / OBZ] | 4.6 µM
CC(OC(=O)NCc1ccccc1)[C@H]1C(=O)N2[C@@H](C(=O)OCc3ccccc3)C(C)(C)S(=O)(=O)[C@H]12 (stereo partly shown) [drawing 28 / 2 / OBZ] | 1.2 µM

Same assay, conditions: crude human PMN extract, 0.2 mM Boc-AAPAN, pH 7.5, 410 mμ, 2 minutes after zero time; read-out: IC50 (dosage for 50% inhibition of the enzyme activity) (converted)

Compound | IC50
CO[C@@]1(NC(=O)C(F)(F)F)C(=O)N2[C@@H](C(=O)OCc3ccccc3)C(C)(C)S(=O)(=O)[C@@H]21 [β-CF3 CONH / α-CH3 O / 2 / OBZ] | 19.4 µM
CO[C@H]1C(=O)N2[C@@H]1[S+]([O-])C(C)(COC(C)=O)[C@@H]2C(=O)OCc1ccccc1 (stereo partly drawn) [α-CH3 O / 1 / OBZ] | 10.1 µM
COc1ccc(CNC(=O)[C@@H]2N3C(=O)[C@@H](NC(=O)C(F)(F)F)[C@H]3S(=O)(=O)C2(C)C)cc1 [6β-CF3 (CO)NH / 2 / NHBZ(p-OCH3)] | 0.647 µM
Cc1ccc(S(=O)(=O)N[C@H]2C(=O)N3[C@@H](C(=O)OCc4ccccc4)C(C)(C)S(=O)(=O)[C@H]23)cc1 [6α-(TS)NH / 2 / OBZ] | 0.406 µM
CC1(C)[C@H](C(=O)OCC(F)(F)F)N2C(=O)[C@H](NC(=O)C(F)(F)F)[C@H]2S1(=O)=O [6α-CF3 CONH / 2 / OCH2 CF3] | 0.235 µM
CO[C@H]1C(=O)N2[C@@H](C(=O)OCC(F)(F)F)C(C)(C)S(=O)(=O)[C@H]12 [6α-OCH3 / 2 / OCH2 CF3] | 11.6 µM
CC(C)(C)OC(=O)c1ccc(COC(=O)[C@@H]2N3C(=O)[C@H](NC(=O)C(F)(F)F)[C@H]3S(=O)(=O)C2(C)C)cc1 [6α-CF3 (CO)NH / 2 / OBZ(p-COOtBu)] | 0.187 µM
CC1(C)S[C@@H]2[C@H](NC(=O)C(F)(F)F)C(=O)N2[C@H]1C(=O)OCc1ccccc1 [6β-CF3 CONH / 0 / OBZ, benzyl 6β-trifluoroacetamidopenicillanate] | 29.8 µM
CC(=O)O[C@H]1C(=O)N2[C@@H]1SC(C)(C)[C@@H]2C(=O)OCc1ccccc1 [CH3 COO / 0 / OBZ] | 28.6 µM
Cc1ccc(S(=O)(=O)C[C@H]2C(=O)N3[C@@H]2[S+]([O-])C(C)(C)[C@@H]3C(=O)OCc2ccccc2)cc1 (stereo partly drawn) [6α-(TS)CH2 / 1 / OBZ] | 8.41 µM
CN(Cc1ccc(C(=O)O)cc1)C(=O)[C@@H]1N2C(=O)[C@H](NC(=O)C(F)(F)F)[C@H]2S(=O)(=O)C1(C)C [6α-CF3 (CO)NH / 2 / N(CH3)BZ(p-COOH)] | 1.42 µM
CO[C@]1(NC(=O)C(F)(F)F)C(=O)N2[C@@H](C(=O)OCc3ccccc3)C(C)(C)S(=O)(=O)[C@@H]21 [α-CF3 CONH / β-CH3 O / 2 / OBZ] | 1.72 µM
CO[C@H]1C(=O)N2[C@@H](C(=O)OCC(=O)OC(C)(C)C)C(C)(C)S(=O)(=O)[C@H]12 [6α-OCH3 / 2 / OCH2 COOtBu] | 7.95 µM
CC(C)(C)OC(=O)[C@@H]1CCCN1C(=O)[C@@H]1N2C(=O)[C@H](NC(=O)C(F)(F)F)[C@H]2S(=O)(=O)C1(C)C [6α-CF3 (CO)NH / 2 / drawing 31] | 40.2 µM
CC1(C)[C@H](C(=O)c2ccccc2)N2C(=O)[C@@H](NC(=O)C(F)(F)F)[C@H]2S1(=O)=O [6β-CF3 CONH / 2 / Ph] | 2.47 µM
CC[C@@]1(NC(=O)C(F)(F)F)C(=O)N2[C@@H](C(=O)OCc3ccccc3)C(C)(C)[S+]([O-])[C@@H]21 (stereo partly drawn) [β-CF3 CONH / α-C2 H5 / 1 / OBZ] | 11.2 µM
Cc1ccc(S(=O)(=O)OC2C(=O)N3[C@@H]2[S+]([O-])C(C)(C)[C@@H]3C(=O)OCc2ccccc2)cc1 (stereo partly shown) [p-CH3 C6 H4 SO2 O(TsO) / 1 / OBZ] | 4.19 µM
CC(OC(=O)N(Cc1ccccc1)C(=O)NCc1ccccc1)[C@H]1C(=O)N2[C@@H](C(=O)OCc3ccccc3)C(C)(C)S(=O)(=O)[C@H]12 (stereo partly shown) [drawing 30 / 2 / OBZ] | 0.0789 µM
CN(Cc1ccc(C(=O)OC(C)(C)C)cc1)C(=O)[C@@H]1N2C(=O)[C@H](NC(=O)C(F)(F)F)[C@H]2S(=O)(=O)C1(C)C [6α-CF3 (CO)NH / 2 / N(CH3)BZ(p-COOtBu)] | 1.28 µM

Compound | IC50
CC1(C)[C@H](C(=O)OCc2ccccc2)N2C(=O)C(OC(=O)COc3ccccc3)[C@H]2[S+]1[O-] (stereo partly shown) [C6 H5 OCH2 COO / 1 / OBZ] | 10.9 µM
COC(=O)[C@@H]1N2C(=O)[C@H](OC)[C@H]2S(=O)(=O)C1(C)C [6α-OCH3 / 2 / OCH3] | 72.1 µM
Cc1ccc(S(=O)(=O)N[C@H]2C(=O)N3[C@@H]2SC(C)(C)[C@@H]3C(=O)OCc2ccccc2)cc1 [6α-(TS)NH / 0 / OBZ] | 0.217 µM
CC(C)(C)OC(=O)c1ccc(COC(=O)[C@@H]2N3C(=O)[C@@H](NC(=O)C(F)(F)F)[C@H]3S(=O)(=O)C2(C)C)cc1 [6β-CF3 (CO)NH / 2 / OBZ(p-COOtBu)] | 0.935 µM
CO[C@H]1C(=O)N2[C@@H]1SC(C)(COC(C)=O)[C@@H]2C(=O)OCc1ccccc1 (stereo partly drawn) [α-CH3 O / 0 / OBZ] | 13.2 µM
CC1(C)S[C@@H]2C(OC(=O)COc3ccccc3)C(=O)N2[C@H]1C(=O)OCc1ccccc1 (stereo partly shown) [C6 H5 OCH2 COO / 0 / OBZ] | 45.3 µM
CN(CC(=O)OC(C)(C)C)C(=O)[C@@H]1N2C(=O)[C@H](NC(=O)C(F)(F)F)[C@H]2S(=O)(=O)C1(C)C [6α-CF3 (CO)NH / 2 / N(CH3)(CH2 COOtBu)] | 1.48 µM
CO[C@H]1C(=O)N2[C@@H](C(=O)OCc3ccc(C(=O)O)cc3)C(C)(C)S(=O)(=O)[C@H]12 [6α-OCH3 / 2 / OBZ(p-COOH)] | 5.03 µM
CN(C(=O)C(F)(F)F)[C@H]1C(=O)N2[C@@H]1[S+]([O-])C(C)(C)[C@@H]2C(=O)OCc1ccccc1 (stereo partly drawn) [6α-CF3 CON(CH3) / 1 / OBZ] | 6.94 µM
CC1(C)[C@H](C(=O)OCc2ccc(C(=O)O)cc2)N2C(=O)[C@H](NC(=O)C(F)(F)F)[C@H]2S1(=O)=O [6α-CF3 (CO)NH / 2 / OBZ(p-COOH)] | 0.0836 µM
CC(O)[C@H]1C(=O)N2[C@@H]1SC(C)(C)[C@@H]2C(=O)OCc1ccccc1 (stereo partly drawn) [6α-CH3 CH(OH) / 0 / OBZ] | 59.6 µM
CO[C@H]1C(=O)N2[C@@H](C(=O)Cc3ccccc3)C(C)(C)S(=O)(=O)[C@H]12 [6α-OCH3 / 2 / BZ] | 5.93 µM
CN(Cc1ccccc1)C(=O)[C@@H]1N2C(=O)[C@@H](NC(=O)C(F)(F)F)[C@H]2SC1(C)C [6β-CF3 (CO)NH / 0 / N(CH3)(BZ), 2,2-diimethyl-6-(trifluoroacetamido)-3-(N-methyl-N-benzylcarbamoyl)penam] | 1.44 µM
CC1(C)[C@H](C(=O)OCc2ccc(C(=O)O)cc2)N2C(=O)[C@@H](NC(=O)C(F)(F)F)[C@H]2S1(=O)=O [6β-CF3 (CO)NH / 2 / OBZ(p-COOH)] | 2.09 µM
CC(OC(=O)OCc1ccc([N+](=O)[O-])cc1)[C@H]1C(=O)N2[C@@H](C(=O)OCc3ccccc3)C(C)(C)S(=O)(=O)[C@H]12 (stereo partly shown) [drawing 27 / 2 / OBZ] | 0.366 µM
CC[C@@]1(NC(=O)C(F)(F)F)C(=O)N2[C@@H](C(=O)OCc3ccccc3)C(C)(C)S(=O)(=O)[C@@H]21 [β-CF3 CONH / α-C2 H5 / 2 / OBZ, benzyl 6α-ethyl-6β-trifluoroacetamidopenicillanate-1,1-dioxide] | 6.49 µM
CC(=O)O[C@H]1C(=O)N2[C@@H]1[S+]([O-])C(C)(C)[C@@H]2C(=O)OCc1ccccc1 (stereo partly shown) [CH3 COO / 1 / OBZ] | 13.7 µM
CC1(C)S[C@@H]2[C@@H](NC(=O)C(F)(F)F)C(=O)N2[C@H]1C(=O)OCc1ccccc1 [6α-CF3 CONH / 0 / OBZ, Benzyl 6α-trifluoroacetamidopenicillanate] | 9.94 µM

Same assay, conditions: read-out: IC50 (dosage for 50% inhibition of the enzyme activity); crude human PMN extract, 0.2 mM Boc-AAPAN, pH 7.5, 410 mμ, 2 minutes after zero time

Compound | IC50
CC1(C)[C@H](C(=O)OCc2ccccc2)N2C(=O)C(OC(=O)Cc3ccccc3)[C@H]2S1(=O)=O (stereo partly shown) [(BZ)COO / 2 / OBZ] | 8.74 µM
CC1(C)S[C@@H]2C(OC(=O)Cc3ccccc3)C(=O)N2[C@H]1C(=O)OCc1ccccc1 (stereo partly shown) [(BZ)COO / 0 / OBZ] | 47 µM
